Reference: patent US3955959A, “Herbicide for use in transplanted rice” (priority 1974, dated 1976)
≈ marks a conversion by molar mass, not a printed value.

Key:
[1] = system: transplanted rice; test: Example 1 field test, rice yield; format: in vivo, rice (Watanabe variety)
From the text: In the field test 48 day-old seedlings (Watanabe variety) were transplanted to plots 2.5 × 6 m. seeded with the weed seeds indicated in Table 1. At 5 and 10 DAT periods, the herbicides were applied to the plants (now at the 1.2 and 2.0 leaf stage, respectively, of grass weed) at the indicated rate in kilograms per hectare (kg/ha). The weed control and rice injury results for 3 replications are reported in percentages as of the indicated times of observation. The percentages given in the "Perennials" column are based on the weight of the weeds at 63 DAT, i.e., 42 gms/3.6 m^2 for the weedy check.

[2] = system: transplanted rice; test: Example 2 field test, crop injury; details: obs. 63 DAT
Experimental: (§1) In the tests described in the tables below, the herbicides were formulated and used in granular form in conventional manner. […] The commercial herbicide used was a granular product having 5% active ingredient.
(§2) In the field tests of the herbicide of this invention with transplanted rice, the rice seedlings were grown in conventional manner, by seeding the rice in a typical seedbed of sandy loam to clay soil of the country wherein the test was conducted. For laboratory and greenhouse work the seedlings were obtained by seeding rice in a mixture of soil, e.g., Ray silt loam, and peat in wood flats. For purposes of testing the herbicides on younger rice seedlings (infant or Dapog) the rice was usually allowed to grow for 6-15 days before lifting for transplanting. Older (ordinary) rice plants were usually grown for a period of about 2-3 weeks, or as much as about 7 weeks before lifting. Since the period of growth is dependent upon climatic conditions, a better measure of when to transplant the rice seedling is the leaf stage of growth; for infant or Dapog rice the seedling is lifted at the 1.5-2 leaf stage of growth, and for ordinary seedlings at the 2.5-5 leaf stage. The seedlings were then transplanted to the test plots for evaluation of the herbicide for injury against weed species present with the transplanted rice. The herbicides were then applied to the growth medium of the weeds and transplant rice, either preemergent or postemergent with respect to the weeds and postemergent with respect to the transplanted rice. Application times are designated in the tables as "DAT", meaning "days after transplant". Application rates given in the tables refer to the amount of active ingredient used.
Rice seedlings (ordinary) of Tainan No. 5 variety (japonica) were transplanted at 19 days of growth. Granular formulations of Herbicides A and B were applied at the 1 leaf stage of grass weed (4 DAT) and 2.5 leaf stage of grass weed (10 DAT). Observations were made at 63 DAT and results reported in Table 2 as an average of 3 replications.

[3] = system: Grass: Ec and Ecol (Echinochloa crusgalli, Echinochloa colonum); test: Example 3 field test on Dapog rice, weed control, Munoz, Philippines; format: in vivo; details: obs. 42 DAT
From the text: (§3) Treatments were replicated four times.

[4] = system: Sedges: Cd, Ci, Fl (Cyperus difformis, Cyperus iria, Fimbristylis littoralis); test: as above; format: in vivo; details: obs. 42 DAT
From the text: as §3

[5] = system: Ec (Echinochloa crusgalli); test: Example 5 field test, weed control, JAAPR, Japan; format: in vivo; details: 1.5 kg/ha, 7 DAT
[6] = system: Ann. Cyp (Cyperus spp); test: Example 5 field test, weed control, JAAPR, Japan; details: 1.5 kg/ha, 7 DAT
Experimental: as §1, §2
The rice seedlings were grown to the 1.7 leaf stage for infant seedlings and to the 5.5 leaf stage for ordinary seedlings. Two days after puddling the soil in which the seedlings were to be transplanted, both infant and ordinary seedlings were transplanted into plots 8.5 m^2.
The weed symbol "Obw" represents "other broadleaf weeds" of unspecified identity. Results presented in Table 5 represent the average of 2 replications.

[7] = system: Ce (Cyperus esculentus); test: Example 7 greenhouse preemergence activity; format: in vivo
Experimental: (§4) In a further comparative study of the preemergence activity of Herbicides A and B, a variety of weeds and upland direct-seeded rice were tested under greenhouse conditions. The present invention is not concerned with the use of Herbicide A in direct-seeded rice. The primary purpose of the experimental work in this example is to compare relative herbicidal activity of Herbicides A and B against the weeds shown in Table 7; most of these weeds were not available for tests with transplanted rice. Although the relative selectivity of these herbicides in upland rice is also evident, that aspect of the tests is more or less incidental to the purpose of this example.
In this example, rice seeds and seeds of the weeds shown in Table 7 were sown in Ray silt loam soil at a depth of 0.5 inch (1.27 cm) in containers for the soil in a greenhouse. Herbicides A and B were applied to the surface of the soil at a spray volume equivalent to 20 gals/acre (187.1 liters/hectare), followed by 0.5 in (1.27 cm) of overhead irrigation. Temperature and relative humidity in the greenhouse were on the order of 85°F (29°C) and 75%, respectively. Observations were made at 21-28 days after seeding.
In Table 7 are shown the average rates of herbicide required to cause a growth reduction of 85% of the weeds ("GR85 "), and the average rate of herbicide required to cause a growth reduction of 15% ("GR15 ") of the rice plants (Oryza sativa, "Os", variety Bluebelle).

[8] = Example 10 fish toxicity, Japanese protocol; format: in vivo, carp; details: carp, in vivo, read-out: Medium Lethal Concentration
Experimental: In view of the importance of fish toxicological considerations, tests were conducted, using carp according to the Japanese protocol, to compare toxicity data for Herbicides A and B; results of those tests are shown in Table 10.

[9] = system: weeds in upland direct-seeded rice; test: Example 7 overall; format: in vivo; details: particular spectrum of weeds
Experimental: as §4
In this example, rice seeds and seeds of the weeds shown in Table 7 were sown in Ray silt loam soil at a depth of 0.5 inch (1.27 cm) in containers for the soil in a greenhouse. Herbicides A and B were applied to the surface of the soil at a spray volume equivalent to 20 gals/acre (187.1 liters/hectare), followed by 0.5 in (1.27 cm) of overhead irrigation. Temperature and relative humidity in the greenhouse were on the order of 85°F (29°C) and 75%, respectively. Observations were made at 21-28 days after seeding. […]

CCCCOCN(C(=O)CCl)c1c(CC)cccc1CC [Herbicide B, n-(butoxymethyl)-2',6'-diethyl-2-chloroacetanilide, reference compound]
yield depression ([1]; 1.0 kg/ha): significant yield depression
Yield (% of Hand-weeded Check) ([1]; 5 DAT, 1.0 kg/ha): 95%
Yield (% of Hand-weeded Check) ([1]; 5 DAT, 1.5 kg/ha): 100%
Yield (% of Hand-weeded Check) ([1]; 5 DAT, 3.0 kg/ha): 99%
Yield (% of Hand-weeded Check) ([1]; 10 DAT, 1.0 kg/ha): 95%
Yield (% of Hand-weeded Check) ([1]; 10 DAT, 1.5 kg/ha): 97%
Yield (% of Hand-weeded Check) ([1]; 10 DAT, 3.0 kg/ha): 100%
% Crop Injury, stand ([2]; 4 DAT, 1.0 kg/ha): 0%
% Crop Injury, vigor ([2]; 4 DAT, 1.0 kg/ha): 0%
% Crop Injury, stand ([2]; 4 DAT, 1.5 kg/ha): 0%
% Crop Injury, vigor ([2]; 4 DAT, 1.5 kg/ha): 0%
% Crop Injury, stand ([2]; 4 DAT, 3.0 kg/ha): 0%
% Crop Injury, vigor ([2]; 4 DAT, 3.0 kg/ha): 0%
% Crop Injury, stand ([2]; 10 DAT, 1.0 kg/ha): 0%
% Crop Injury, vigor ([2]; 10 DAT, 1.0 kg/ha): 0%
% Crop Injury, stand ([2]; 10 DAT, 1.5 kg/ha): 0%
% Crop Injury, vigor ([2]; 10 DAT, 1.5 kg/ha): 0%
% Crop Injury, stand ([2]; 10 DAT, 3.0 kg/ha): 0%
% Crop Injury, vigor ([2]; 10 DAT, 3.0 kg/ha): 0%
% Weed control, Grass (Ec and Ecol) ([3]; 5 DAT, 1.0 kg/ha): 100%
% Weed control, Grass (Ec and Ecol) ([3]; 5 DAT, 1.5 kg/ha): 100%
% Weed control, Grass (Ec and Ecol) ([3]; 5 DAT, 3.0 kg/ha): 100%
% Weed control, Grass (Ec and Ecol) ([3]; 14 DAT, 1.0 kg/ha): 0%
% Weed control, Grass (Ec and Ecol) ([3]; 14 DAT, 1.5 kg/ha): 0%
% Weed control, Grass (Ec and Ecol) ([3]; 14 DAT, 3.0 kg/ha): 60%
% Weed control, Sedges (Cd, Ci, Fl) ([4]; 5 DAT, 1.0 kg/ha): 100%
% Weed control, Sedges (Cd, Ci, Fl) ([4]; 5 DAT, 1.5 kg/ha): 100%
% Weed control, Sedges (Cd, Ci, Fl) ([4]; 5 DAT, 3.0 kg/ha): 100%
% Weed control, Sedges (Cd, Ci, Fl) ([4]; 14 DAT, 1.0 kg/ha): 0%
% Weed control, Sedges (Cd, Ci, Fl) ([4]; 14 DAT, 1.5 kg/ha): 0%
% Weed control, Sedges (Cd, Ci, Fl) ([4]; 14 DAT, 3.0 kg/ha): 70%
control of Ec in words [5]: substantially complete control
% Weed Control (Ec) ([5]; infant seedlings): 99%
% Weed Control (Ec) ([5]; ordinary seedlings): 81%
control of Ann. Cyp in words [6]: substantially complete control
% Weed Control (Ann. Cyp) ([6]; infant seedlings): 100%
% Weed Control (Ann. Cyp) ([6]; ordinary seedlings): 99%
resistance of Ce [7]: resists
LC50 at 48 h ([8]; 48 hours): 1 µg/mL (≈ 3.21 µM)
LC50 at 96 h ([8]; 96 hours): 0.76 µg/mL (≈ 2.44 µM)
selectivity, A vs B, upland direct-seeded rice [9]: slightly more selective
